Data reported in US9212146B2, “Substituted pyridazinones for the treatment of tumors” (SHANGHAI INSTITUTE OF MATERIA MEDICA, CHINESE ACADEMY OF …, priority 2008, dated 2015).
pIC50: −log10 of the molar value. Read-outs that look alike come from different tables or passages of the source. Each block holds one molecule with its values, some of them ahead of it.

Experiments:
[1] = tested on: human liver cancer cells Bel-7402 transplanted tumor; format: in vivo; conditions: for Quantity of Animals Whose Tumors Vanished / Inhibition Rate (%) / Tumor Volume (mm^3): PO; for Quantity of Animals Whose Tumors Vanished: 5 animals per group; for Inhibition Rate (%) / Tumor Volume (mm^3): Bel-7402 on nude mice; for tumors vanished (animals/group): at the 11th day; for tumors vanished (animals/group) / toxicity / survivability of mice: intragastrically once a day for 11 days; for toxicity / survivability of mice: nude mice; for recrudescence of tumors: at the end of the experiment (17th day)
From the text: Name and lot number: YHHU-744, a white powder, lot No.: No. c001471-106; YHHU-755, a white powder, lot No.: No. c001471-102; YHHU-756, a white powder, lot No.: No. c00147-106; YHHU-759, a white powder, lot No.: No. c001471-102; YHHU-776, a white powder, lot No.: No. c001471-107. Sorafenib was used as a positive control.
Formulation: YHHU-744, YHHU-755, YHHU-756, YHHU-759, YHHU-776 and the positive control were each diluted with 0.1% Tween-80 and distilled water to a desired concentration.
BALB/cA nude mice, 6-7 weeks old, ♀, were purchased from Shanghai SLAC Laboratory Animal Co. LTD. Certificate No.: SCXK (Shanghai) 2007-0005. Habitat: SPF level.
Human liver cancer cells Bel-7402 were inoculated on nude mice subcutaneously. After the tumor grew up to 300-450 mm^3, animals were grouped randomly (d0). The tumor volume was measured 2-3 times each week and the weights of mice were recorded. The tumor volume was calculated according to as the following equation. V=½×a×b^2 wherein, a and b are length and width, respectively. […]

[2] = tested on: ovarian cancer cell line SK-OV-3; experiment: SRB proliferation assay, SK-OV-3; format: cell-based; conditions: Homo sapiens, 72 hours
Protocol: (§1) Protocol: the antineoplasmic activities in vitro of the compounds were assayed by a Sulforhodamine B (SRB) protocol. Tumor cells were cultivated at 37 under 5% CO2 in a RPMI 1640 medium or a DMEM medium (Gibco) containing 10% fetal bovine serum. Tumor cells were inoculated on a 96-well plate with a concentration of 0.4-1.0×10^4 cells per well according to the cell types. 24 hours later, the target compounds diluted 10 times were added, each compound having at least 5 concentrations. After treated by the compounds for 72 hours, the culture media were discarded, and the cells were fixed by 10% cold trichloroacetic acid, and then stained by Sulforhodamine B (SRB) solution. The uncombined SRB was washed off, and the SRB combined with protein was dissolved with Tris. OD values were recorded at 515 nm on an ELISA Reader, and the cell growth inhibition rate was calculated according to following equation: Inhibition rate=(ODcontrol−ODexperimental)/ODcontrol×100%
(§2) IC50 (50% inhibitory concentration) was calculated by using Logit method based on the inhibition rates at various concentration, and the results are shown in tables 1 and 2. […]

[3] = tested on: human hepatoma cell line Bel-7402; experiment: SRB proliferation assay, Bel-7402; format: cell-based
Protocol: as §1
IC50 (50% inhibitory concentration) was calculated by using Logit method based on the inhibition rates at various concentration, and the results are shown in tables 1 and 2.
The following cell lines were used: human hepatocarcinoma cell line […]; ovarian cancer cell line SK-OV-3; human breast cancer cell line MDA-MB-231; human renal carcinoma cell line A498; colon adenocarcinoma cell line HT-29; non-small cell lung cancer cell line NCI-H460; lung adenocarcinoma cell line A549; human colon cancer cell line SW-620; human hepatoma cell line Bel-7402; human breast carcinoma cell line SK-BR-3; and human umbilical vein endothelial cells (HUVEC).

[4] = tested on: human breast cancer cell line MDA-MB-231; experiment: SRB proliferation assay, MDA-MB-231; format: cell-based; conditions: MDA-MB-231, breast carcinoma, 72 hours
Protocol: as §1, §2

[5] = tested on: human hepatocarcinoma cell line SIMM-7721; experiment: SRB proliferation assay, SIMM-7721; format: cell-based; conditions: SIMM-7721, liver cancer, 72 hours
Protocol: as §1, §2

[6] = tested on: human umbilical vein endothelial cells (HUVEC); experiment: SRB proliferation assay, HUVEC; format: cell-based; conditions: human umbilical vein endothelial cells (normal cells), 72 hours
Protocol: as §1, §2

[7] = tested on: human colon cancer cell line SW-620; experiment: SRB proliferation assay, SW-620; format: cell-based; conditions: SW-620, colon carcinoma, 72 hours
Protocol: as §1, §2

[8] = tested on: human renal carcinoma cell line A498; experiment: SRB proliferation assay, A498; format: cell-based; conditions: 72 hours
Protocol: as §1, §2

[9] = tested on: colon adenocarcinoma cell line HT-29; experiment: SRB proliferation assay, HT-29; format: cell-based; conditions: Homo sapiens, HT-29, colon carcinoma, 72 hours
Protocol: as §1, §2

[10] = tested on: human breast carcinoma cell line SK-BR-3; experiment: SRB proliferation assay, SK-BR-3; format: cell-based; conditions: SK-BR-3, breast carcinoma, 72 hours
Protocol: as §1, §2

[11] = tested on: non-small cell lung cancer cell line NCI-H460; experiment: SRB proliferation assay, NCI-H460; format: cell-based; conditions: Homo sapiens, 72 hours
Protocol: as §1, §2

liver cancer of animals = experiment: Curative effect against liver cancer of animals in vivo
[12] = tested on: human liver cancer cells SMMC-7721 transplanted tumor; experiment: SMMC-7721 transplanted tumor on nude mice; format: in vivo; conditions: intragastrically once a day for 10 days; subcutaneous tumor on nude mice
Protocol: Experimental procedure: BALB/cA nude mice, 6-7 weeks old, ♀, were purchased from Shanghai SLAC Laboratory Animal Co. LTD. Certificate No.: SCXK (Shanghai) 2007-0005. Habitat: SPF level. The compounds were diluted with 0.5% CMC containing 0.1% Tween-80 to a desired concentration. Human liver cancer cells SMMC-7721 were inoculated on nude mice subcutaneously. After the tumor grew up to 100-200 mm^3, animals were grouped randomly (d0). Mice were consecutively administered with compounds intragastrically once a day for 10 days. The tumor volume was measured 2-3 times each week and the weights of mice were recorded. The tumor volume (V) was calculated according to the following equation: V=½×a×b^2, wherein, a and b are length and width, respectively.

[13] = Homo sapiens, Bel-7402, 72 h, BEL-7402 cultivated in vitro, given as bounds, read-out: The Inhibition Activities for Human Liver Cancer Cells BEL-7402 (IC50)
[14] = BEL-7402 cultivated in vitro, 72 hours, given as bounds, read-out: The Inhibition Activities for Human Liver Cancer Cells BEL-7402 (IC50)

Structure (SMILES): CNC(=O)c1cc(Oc2ccc(NC(=O)Nc3ccc(Cl)c(C(F)(F)F)c3)cc2)ccn1 [Sorafenib, reference compound]
Quantity of Animals Whose Tumors Vanished ([1]; 60 mg/kg, QDx16): 0 | Inhibition Rate (%) ([1]; 60 mg/kg, QDx16): 50% | Tumor Volume (mm^3) ([1]; 60 mg/kg, QDx16): 279.8 mm^3

Structure (SMILES): O=c1ccc(-c2ccc(N3CCCC3)c(C(F)(F)F)c2)n[nH]1 [YHHU-646]
pIC50 [2]: 8.52 | pIC50 [3, 13]: > 8.00 | pIC50 ([3]; Homo sapiens, Bel-7402, 72 h, Bel-7402, liver cancer, Table 1, read-out: IC50): 9.15 | pIC50 [4]: < 4.70 | pIC50 [5]: > 7.00 | pIC50 [6]: 7.52 | pIC50 [7]: 5.24 | pIC50 [8]: 5.39 | pIC50 [9]: 5.20 | pIC50 [10]: 5.12 | pIC50 [11]: 4.62 | curative effect against liver cancer of animals in vivo (liver cancer of animals): significant curative effect

Structure (SMILES): CCNc1ccc(-c2ccc(=O)[nH]n2)cc1C(F)(F)F [YHHU-744]
pIC50 [3, 13]: > 8.00 | Quantity of Animals Whose Tumors Vanished ([1]; 100 mg/kg, QDx11): 4 | Inhibition Rate (%) ([1]; 100 mg/kg, QDx11): 98% | Tumor Volume (mm^3) ([1]; 100 mg/kg, QDx11): 343.7 mm^3 | tumors vanished (animals/group) [1]: 4/5 | toxicity / survivability of mice [1]: no significant toxicity was observed

Structure (SMILES): O=c1ccc(-c2ccc(N3CC(O)C3)c(C(F)(F)F)c2)n[nH]1 [YHHU-752]
pIC50 [3, 13]: > 7.00

Structure (SMILES): O=c1ccc(-c2ccc(N3CCCC(O)C3)c(C(F)(F)F)c2)n[nH]1 (stereo not shown) [YHHU-753]
pIC50 [3, 13]: > 7.00

Structure (SMILES): O=c1ccc(-c2ccc(N3CCCCC3)c(C(F)(F)F)c2)n[nH]1 [YHHU-755]
pIC50 [3, 13]: > 8.00 | Quantity of Animals Whose Tumors Vanished ([1]; 100 mg/kg, QDx11): 5 | Inhibition Rate (%) ([1]; 100 mg/kg, QDx11): 100% | Tumor Volume (mm^3) ([1]; 100 mg/kg, QDx11): 350.4 mm^3 | tumors vanished (animals/group) [1]: 5/5 | recrudescence of tumors [1]: no recrudescence was observed | toxicity / survivability of mice [1]: no significant toxicity was observed

Structure (SMILES): O=c1ccc(-c2ccc(NC3CCCCC3)c(C(F)(F)F)c2)n[nH]1 [YHHU-757]
pIC50 [3, 14]: > 8.00

Structure (SMILES): O=c1ccc(-c2ccc(N3CCOCC3)c(C(F)(F)F)c2)n[nH]1 [YHHU-759]
pIC50 [3, 13]: > 8.00 | Quantity of Animals Whose Tumors Vanished ([1]; 100 mg/kg, QDx11): 5 | Inhibition Rate (%) ([1]; 100 mg/kg, QDx11): 100% | Tumor Volume (mm^3) ([1]; 100 mg/kg, QDx11): 367.9 mm^3 | tumors vanished (animals/group) [1]: 5/5 | recrudescence of tumors [1]: no recrudescence was observed | toxicity / survivability of mice [1]: no significant toxicity was observed | growth of SMMC-7721 transplanted tumor [12]: significantly inhibited the growth

Structure (SMILES): O=c1ccc(-c2ccc(N3CCCCC3CO)c(C(F)(F)F)c2)n[nH]1 (stereo not shown) [YHHU-763]
pIC50 [3, 13]: > 7.00

Structure (SMILES): O=C(O)C1CCCN(c2ccc(-c3ccc(=O)[nH]n3)cc2C(F)(F)F)C1 (stereo not shown) [YHHU-765]
pIC50 [3, 13]: > 7.00

Structure (SMILES): O=c1ccc(-c2ccc(N3CCC(O)C3)c(C(F)(F)F)c2)n[nH]1 (stereo not shown) [YHHU-766]
pIC50 [3, 13]: > 7.00

Structure (SMILES): CCOC(=O)C1CCCN1c1ccc(-c2ccc(=O)[nH]n2)cc1C(F)(F)F (stereo not shown) [YHHU-768]
pIC50 [3, 13]: > 7.00

Structure (SMILES): O=c1ccc(-c2ccc(OCCN3CCCC3)c(C(F)(F)F)c2)n[nH]1 [YHHU-770]
pIC50 [3, 13]: > 7.00

Structure (SMILES): O=c1ccc(-c2ccc(OCCN3CC3)c(C(F)(F)F)c2)n[nH]1 [YHHU-771]
pIC50 ([3]; Homo sapiens, BEL-7402 cultivated in vitro, 72 hours, given as bounds, read-out: The Inhibition Activities for Human Liver Cancer Cells BEL-7402 (IC50)): > 7.00

Structure (SMILES): O=c1ccc(-c2ccc(OCCN3CCOCC3)c(C(F)(F)F)c2)n[nH]1 [YHHU-775]
pIC50 [3, 13]: > 7.00

Structure (SMILES): O=c1ccc(-c2ccc(N3CCC(O)CC3)c(C(F)(F)F)c2)n[nH]1 [YHHU-776]
pIC50 [3, 13]: > 8.00 | Quantity of Animals Whose Tumors Vanished ([1]; 100 mg/kg, QDx11): 5 | Inhibition Rate (%) ([1]; 100 mg/kg, QDx11): 100% | Tumor Volume (mm^3) ([1]; 100 mg/kg, QDx11): 338.2 mm^3 | tumors vanished (animals/group) [1]: 5/5 | recrudescence of tumors [1]: no recrudescence was observed | toxicity / survivability of mice [1]: no significant toxicity was observed

Continued, values first:

pIC50 [3, 13]: > 8.00
Structure (SMILES): CNc1ccc(-c2ccc(=O)[nH]n2)cc1C(F)(F)F [YHHU-758]

pIC50 [3, 13]: < 7.00
Structure (SMILES): O=c1ccc(-c2ccc(NCCO)c(C(F)(F)F)c2)n[nH]1 [YHHU-760]

pIC50 [3, 13]: > 8.00
Structure (SMILES): CC(C)Nc1ccc(-c2ccc(=O)[nH]n2)cc1C(F)(F)F [YHHU-761]

pIC50 [3, 14]: > 8.00
Structure (SMILES): COc1ccc(-c2ccc(=O)[nH]n2)cc1C(F)(F)F [YHHU-762]

pIC50 [3, 13]: > 6.00
Structure (SMILES): CCOC(=O)CCNc1ccc(-c2ccc(=O)[nH]n2)cc1C(F)(F)F [YHHU-769]

pIC50 [3, 13]: > 7.00
Structure (SMILES): CC(C)CCOc1ccc(-c2ccc(=O)[nH]n2)cc1C(F)(F)F [YHHU-772]

pIC50 [3, 13]: > 7.00
Structure (SMILES): CCC(C)(C)Oc1ccc(-c2ccc(=O)[nH]n2)cc1C(F)(F)F [YHHU-773]

pIC50 [3, 13]: > 7.00
Structure (SMILES): COC(CNc1ccc(-c2ccc(=O)[nH]n2)cc1C(F)(F)F)OC [YHHU-774]
